Test results reported in patent US20250115581A1, “SUBSTITUTED PIPERIDINES AS CK1A DEGRADERS” (Monte Rosa Therapeutics, Inc., priority 2022, published 2025).

Columns and labels:
[1] = test system: LS174T; experiment: Growth inhibition, CyQUANT Direct Cell Proliferation Assay, LS174T; assay type: cell-based; settings: Homo sapiens; LS174T cells, 120 to 168 hours
Method: SKCO1, LS180, and LS174T cell lines were purchased from ATCC. CW2 cell line was purchased from Riken. GP2D cell line was purchased from Sigma/ECACC. All cell lines were cultured in manufacturer's recommended media at 37° C., 5% CO2. Briefly, cells were suspended in 200 μL of media and seeded at 300 to 1,800 cells per well in tissue culture treated 96-well plates with black walls and clear bottom. Plates were incubated overnight and initial (TO) read was performed the following day using CyQUANT Direct Cell Proliferation Assay Kit (Thermo Fisher Scientific) according to manufacturer's protocol. All compounds were solubilized in DMSO and prepared at 3-fold serial dilution, using 9 points starting at 30 μM as highest concentration, administered to cells and incubated for 120 to 168 hours, at which point CyQUANT assay measurement was performed using Acumen Cellista instrument (Ex/Em 480/520 nm). Media-only wells were used as blank, and 0.3% DMSO was used as DMSO-treated cell control. Growth inhibition (percent response) was calculated using the following formula in Excel: “=if ([Compound treated Day N]>[Untreated Day 0, AVG], ([Compound treated Day N]− [Untreated Day 0, AVG])/([Untreated Day N]−[Untreated Day 0, AVG])*100, ([Compound Treated Day N]−[Untreated Day 0, AVG])/([Untreated Day 0, AVG])*100)”. GI50 is the response corresponding to the 50% of untreated control.
GI50 data are reported in Tables 4a, 4b, 4c, 4d, and 4e for compounds in Table 1. In Tables 4a, 4b, 4c, 4d, and 4e below, According to the code, A represents a GI50 value of ≤0.1 μM, B represents a GI50 value >0.1 μM and ≤1 μM, C represents an GI50 value >1 μM.

[2] = target: T1, CK1α (Homo sapiens, UniProt P48729+Q96SW2); experiment: CK1α NanoBit Assay (HiBiT-tagged CSNK1A1 in HEK293 cells, luminescence); assay type: cell-based; settings: 24 h
T1 construct: HEK293 clonal lines with CRISPR KI HiBiT tag on CSNK1A1; host or cells: HEK293 clonal line, CRISPR knock-in HiBiT at the CSNK1A1 locus, stably expressing LgBiT
T1 sequence (P48729 whole entry): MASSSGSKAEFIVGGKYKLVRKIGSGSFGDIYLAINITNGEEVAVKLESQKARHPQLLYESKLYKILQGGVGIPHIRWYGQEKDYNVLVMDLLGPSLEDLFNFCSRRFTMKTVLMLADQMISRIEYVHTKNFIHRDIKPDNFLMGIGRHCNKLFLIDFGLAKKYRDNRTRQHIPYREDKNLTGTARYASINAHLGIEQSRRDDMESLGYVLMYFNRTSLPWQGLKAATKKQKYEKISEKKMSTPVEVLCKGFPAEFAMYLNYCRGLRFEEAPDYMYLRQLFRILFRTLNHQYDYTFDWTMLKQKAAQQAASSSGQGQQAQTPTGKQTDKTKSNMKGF
T1 sequence (Q96SW2 whole entry): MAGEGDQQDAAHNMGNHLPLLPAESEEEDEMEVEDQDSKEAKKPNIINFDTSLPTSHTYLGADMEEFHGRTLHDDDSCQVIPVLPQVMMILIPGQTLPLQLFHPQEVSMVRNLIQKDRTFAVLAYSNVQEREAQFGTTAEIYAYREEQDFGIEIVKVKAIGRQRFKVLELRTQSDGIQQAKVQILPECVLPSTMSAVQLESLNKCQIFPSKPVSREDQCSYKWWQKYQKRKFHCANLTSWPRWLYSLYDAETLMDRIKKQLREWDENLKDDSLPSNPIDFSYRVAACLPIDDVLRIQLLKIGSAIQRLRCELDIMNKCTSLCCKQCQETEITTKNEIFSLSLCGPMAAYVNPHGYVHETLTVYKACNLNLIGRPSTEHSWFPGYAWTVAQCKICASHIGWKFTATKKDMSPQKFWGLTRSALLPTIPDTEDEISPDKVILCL
T1 sequence (Q16531 whole entry partner): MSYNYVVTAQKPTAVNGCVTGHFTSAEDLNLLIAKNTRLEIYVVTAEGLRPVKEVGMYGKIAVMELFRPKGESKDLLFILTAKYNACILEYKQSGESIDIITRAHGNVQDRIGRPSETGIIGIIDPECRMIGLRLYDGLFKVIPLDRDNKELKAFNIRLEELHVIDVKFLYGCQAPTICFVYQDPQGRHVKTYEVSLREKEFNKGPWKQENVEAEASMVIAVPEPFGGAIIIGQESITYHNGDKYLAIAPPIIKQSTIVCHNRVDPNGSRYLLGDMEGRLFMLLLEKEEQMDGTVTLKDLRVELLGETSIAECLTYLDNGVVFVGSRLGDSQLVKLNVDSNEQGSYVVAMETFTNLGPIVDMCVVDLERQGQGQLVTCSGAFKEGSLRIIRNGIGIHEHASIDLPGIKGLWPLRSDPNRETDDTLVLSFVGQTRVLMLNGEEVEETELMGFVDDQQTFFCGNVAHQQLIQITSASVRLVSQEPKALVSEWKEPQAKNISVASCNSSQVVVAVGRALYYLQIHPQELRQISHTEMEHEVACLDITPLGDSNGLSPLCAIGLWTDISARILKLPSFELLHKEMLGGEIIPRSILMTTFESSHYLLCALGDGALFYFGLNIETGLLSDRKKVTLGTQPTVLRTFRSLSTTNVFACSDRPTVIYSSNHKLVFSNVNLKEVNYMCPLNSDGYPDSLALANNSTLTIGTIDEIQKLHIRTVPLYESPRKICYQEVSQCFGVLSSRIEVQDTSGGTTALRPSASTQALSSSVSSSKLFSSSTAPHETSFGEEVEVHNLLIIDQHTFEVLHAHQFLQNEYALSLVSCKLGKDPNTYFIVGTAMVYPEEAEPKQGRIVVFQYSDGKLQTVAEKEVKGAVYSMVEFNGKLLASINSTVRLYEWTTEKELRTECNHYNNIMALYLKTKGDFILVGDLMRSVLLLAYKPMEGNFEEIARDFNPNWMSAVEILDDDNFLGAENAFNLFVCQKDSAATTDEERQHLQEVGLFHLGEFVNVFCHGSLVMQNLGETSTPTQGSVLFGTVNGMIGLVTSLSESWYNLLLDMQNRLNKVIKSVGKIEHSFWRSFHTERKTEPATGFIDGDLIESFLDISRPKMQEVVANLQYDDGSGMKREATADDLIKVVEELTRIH
How it was run: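 HEK293 with endogenous HiBiT-tagged CSNK1A1 and stable LgBiT, live-cell Endurazine substrate; compound added at 10 or 30 μM final top concentration after 16 h plating, then 24 h at 37 °C. Luminescence normalised to plate controls; DC50 by 3-parameter logistic fit, hill slope 1.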

DC50 [2] | SMILES | GI50 [1]
≤ 0.1 µM | O=C1CCC(N2Cc3cc(N4CCN(c5ccccc5)C4=O)ccc3C2=O)C(=O)N1 (stereo not drawn) [Compound 101, 3-(1-oxo-5-(2-oxo-3-phenylimidazolidin-1-yl)isoindolin-2-yl)piperidine-2,6-dione] | > 1000 nM
≤ 0.1 µM | C[C@@H]1CN(c2ccc3c(c2)CN(C2CCC(=O)NC2=O)C3=O)C(=O)N1c1ccccc1 (stereo partly drawn) [Compound 107, 3-(5-((R)-4-methyl-2-oxo-3-phenylimidazolidin-1-yl)-1-oxoisoindolin-2-yl)piperidine-2,6-dione] | > 1000 nM
≤ 0.1 µM | C[C@@H]1CN(c2ccc3c(c2)CN(C2CCC(=O)NC2=O)C3=O)C(=O)N1c1ccc(C2CC2)cc1 (stereo partly drawn) [Compound 125, 3-(5-((R)-3-(4-cyclopropylphenyl)-4-methyl-2-oxoimidazolidin-1-yl)-1-oxoisoindolin-2-yl)piperidine-2,6-dione] | ≤ 100 nM
